Here are results for 1 molecule from US5942494A, “Stimulation of gene expression and synthesis of heat shock protein 72/73 (HSP 70)” (The Trustees of Columbia University in the City of New York, priority 1996, dated 1999).

Molecules are shown by their SMILES. Square brackets hold non-standard residues; d marks the D form. Peptide text beside a SMILES is read from it. Nle = CCCC[C@H](N)C(=O)O

One test deals with Hsp70. The test is described as follows: Pulse-chase turnover of radiolabeled Hsp70 in HepG2 cells. The class given is cell-based, human. On the procedure: FIGS. 4A-4B: Effects of ALLN on Hsp70 turnover and synthesis rates in HepG2 cells. Confluent culture dishes were preincubated for 4 hours with serum-free MEM containing either 1.5% BSA alone (Control) or BSA plus 40 μg/ml of ALLN (ALLN). (A) The preincubated cells were radiolabeled with 3H-leucine (150 μCi/ml) in serum-free, leucine-free medium with/without ALLN for 20 min., washed 3 times with medium free of isotope and then chased in serum-free medium containing BSA with/without ALLN for up to 20 hours. At the indicated time points, cells were harvested and lysed. Samples were immediately stored in a -80° C. freezer. Immunoprecipitation of Hsp70 was performed as described in FIG. 1. Data at each time point were presented as means of cpm from duplicate dishes. (B) . […]
FIGS. 8A-8C: Effects of ALLN on Hsp70 synthesis and turnover rates in HepG2 cells. […] Immunoprecipitates were analyzed on SDS-PAGE and fluorography (A) and also aliquoted for scintillation counting (B). […]
(§1) HepG2 cells were preincubated for 4 hours in serum-free MEM and then radiolabeled with ^3 H-Leucine (150 μCi/ml) in a serum-free, leucine-free medium. […] Cell lysates containing equal amounts of trichloroacetic acid (TCA)-insoluble radioactivity were used for immunoprecipitations by incubating with individual monoclonal antibody (1 μg/ml) for 2.5 hours at 4° C. […]

The subject of a further test is albumin. The test is described as follows: Immunoprecipitation of albumin from radiolabeled HepG2 cells. The note with it: HepG2, ALLN 4 hours. The format is cell-based, human. On the procedure:
FIGS. 7A-7B: Effects of ALLN on the biosynthesis of other members of Hsp family and related proteins. HepG2 cells were pre-treated and radiolabeled with or without ALLN for 4 hours as described in FIG. 1. Cell lysates were used for SDS-PAGE (A), or for immunoprecipitation with anti-Hsp25, -Hsp27, -Hsp60, -Hsp70, -Hsp86, -Hsp90, -Hsp104, -Bip, or -albumin antibodies respectively (1 μg/ml) (B). Because the anti-Hsp25, -Hsp27, -Hsp60 and Hsp90 antibodies are from a rat source, rabbit anti-rat IgG antibody was added after the first incubation, and the incubation was extended for another 1 hour at 4° C. before collection with protein A-Sepharose.Immunoprecipitates were loaded for SDS-PAGE and aliquoted for scintillation counting and plotting. Each value was presented as mean ±S.D. from three individual culture dishes.
as §1

Regarding `CCCC[C@@H](C=O)NC(=O)[C@H](CC(C)C)NC(=O)[C@H](CC(C)C)NC(C)=O` [ALLN, N-acetyl-leucyl-leucyl-norleucinal] (Ac-Leu-Leu-[Nle]-aldehyde), the “Half life of newly synthesized Hsp70 in the presence of ALLN” value in the test with Hsp70 (ALLN 40 μg/ml, pulse-chase, HepG2) was “about 6 hours”. Further, the “Increase in the half-life of Hsp70” value with Hsp70 (ALLN versus no ALLN) is on record as 3-4 fold. Moreover, in the test with albumin, the Effect on albumin entry is recorded as “no effects”.
